Test results published in patent US10940188B2, “Compounds and methods for treatment and prevention of Flavivirus infection” (priority 2016, dated 2021).
“Also recorded” adds a separate entry of the source.

How the values were obtained:
[1] = system: forebrain-specific hNPCs infected by FSS13025; assay: Immunostaining of ZIKV-infected forebrain-specific hNPCs (monolayer) for cleaved caspase-3 and ZIKVE; type: cell-based, human
Source text: (§1) FIGS. 1A-1, 1A-2, 1A-3, 1B-1, 1B-2, 1C-1, and 1C-2. Emricasan suppresses cell death of ZIKV-infected human astrocytes and hNPCs in 2D monolayer cultures and 3D brain organoids. Emricasan (FIG. 1A-1) inhibits caspase-3 activity and improves cell viability in human astrocytes infected with three different strains of ZIKV in a concentration dependent manner. Value represent mean±s.d. (n=3). The curves (FIGS. 1A-2 and 1A-3) represent best fit. (FIG. 1B) Sample images of immunostaining (FIG. 1B-1) of forebrain-specific hNPCs for ZIKV envelop protein (ZIKVE; green) and cleaved-caspase 3 (Cas3; red) and DAPI (gray) 72 hours after ZIKV FSS-13025 infection (MOI=0.04-0.08; Scale bar: 20 μm), and quantification (FIG. 1B-2). Values represent mean±s.e.m. (n=3; **P<0.01; Student's t-test). Sample images (FIG. 1C-1) of immunostaining of day 28 human forebrain-specific organoids for ZIKVE (green) and Cas3 (red) and DAPI (gray) 10 days after ZIKV FSS-13025 infection (Scale bar: 100 μm), and quantification (FIG. 1C-2). Values represent mean±s.e.m. (n=6; ***P<0.001; Student's t-test).
Cells were fixed with 4% paraformaldehyde (Sigma) for 15 min at room temperature. Samples were permeabilized and blocked with 0.25% Triton X-100 (Sigma) and 10% donkey or goat serum in PBS for 20 min as previously described (Chiang et al., 2011; [41]; Yoon et al., 2014). […]

[2] = system: human forebrain-specific organoids infected by FSS13025; assay: Immunostaining of ZIKV-infected forebrain-specific organoids for cleaved caspase-3 and ZIKVE; type: cell-based; conditions: FSS13025 infection, 10 days
Source text: as §1
Forebrain-specific organoids were generated from the C2-1 human iPSC line as previously described. Briefly, human iPSC colonies were detached 7 days after passage with Collagenase Type IV, washed with fresh stem cell medium and cultured in a 15 ml conical tube. […]

[3] = system: liver injury in chronic Hepatitis C patients; conditions: chronic HCV patients; cited from earlier work
activated caspases = conditions: in vitro; cited from earlier work
ZIKV MR766 NS1 = assay: microbe, parasite or virus in culture; type: cell-based, Zika virus; conditions: Zika virus, HEK293, 48 h, read-out: NS1-IC50
Description: A one-step NS1 TR-FRET (Time-resolved fluorescence resonance energy transfer) assay for a screen of anti-ZIKV compounds was carried out. Human embryonic kidney cell line HEK293 cells were seeded into 384-well plates and infected with ZIKV MR766 at a MOI of 0.5 for 2 days. The FRET assay was performed with two clones of anti-NS1 antibody (ab) differentially labelled with donor and acceptor fluorophores.

SMILES | number of cleaved caspase-3-expressing hNPCs, monolayer ([1]; FSS13025 infection, 72 hours) | suppression of ZIKV replication (ZIKV antigen in 2D and 3D cultures) ([1]; after Emricasan treatment) | number of cleaved caspase-3-expressing hNPCs, 3D organoid cultures [2] | liver injury and tolerability in clinical trials [3] | activity against activated caspases (activated caspases) | IC50 (ZIKV MR766 NS1)
C[C@H](NC(=O)C(=O)Nc1ccccc1C(C)(C)C)C(=O)N[C@@H](CC(=O)O)C(=O)COc1c(F)c(F)cc(F)c1F [Emricasan] | reduced the number of active (cleaved) caspase-3-expressing forebrain-specific hNPCs | does not suppress ZIKV replication | reduced the number of active (cleaved) caspase-3-expressing forebrain-specific hNPCs | reduced liver injury and was tolerated over 12 weeks; also recorded: well tolerated in human trials without significant adverse events | sub- to nano-molar activity | 
CC[C@H]1CN2CCc3cc(OC)c(OC)cc3[C@@H]2C[C@@H]1C[C@H]1NCCc2cc(OC)c(OC)cc21 [Emetine] |  |  |  |  |  | 114 nM
